Data: patent publication US20240174618A1, “SUBSTITUTED (2-HETEROARYLOXYPHENYL)SULFONATES, SALTS THEREOF AND THEIR USE AS HERBICIDAL AGENTS” (Bayer Aktiengesellschaft, priority 2021, published 2024)

How the values were obtained:
Assay type in all cases: in vivo
[1] = tested on: Amaranthus retroflexus (AMARE); assay: A. Herbicidal pre-emergence efficacy, AMARE
Source text: (§1) Seeds of mono- and dicotyledonous weed plants were placed in plastic pots in sandy loam soil (doubly sown with one species each of mono- or dicotyledonous weed plants per pot) and covered with soil. The compounds of the invention, formulated in the form of wettable powders (WP) or as emulsion concentrates (EC), were then applied onto the surface of the covering soil as aqueous suspension or emulsion with addition of 0.5% additive at a water application rate of 600 liters per hectare (converted). After the treatment, the pots were placed in a greenhouse and kept under good growth conditions for the test plants. After about 3 weeks, the efficacy of the preparations was scored visually in comparison with untreated controls as percentages.
(§2) For example, • 100% efficacy=plants have died, • 0% efficacy=like untreated control plants.
(§3) Tables A1a to A12c below show the effects of selected compounds of the general formula (I) according to table 1 on various harmful plants at an application rate corresponding to 1280 g/ha or less, which were obtained by the experimental procedure mentioned above.

Poa annua (POAAN) [2] = assay: B. Herbicidal post-emergence efficacy, POAAN; conditions: 1280 g/ha
Description: (§4) Seeds of mono- and dicotyledonous weed plants were placed in plastic pots in sandy loam soil (doubly sown with in each case one species of mono- or dicotyledonous weed plants per pot), covered with soil and cultivated in a greenhouse under controlled growth conditions. 2 to 3 weeks after sowing, the test plants were treated at the one-leaf stage. The compounds of the invention, formulated in the form of wettable powders (WP) or as emulsion concentrates (EC), were applied onto the green parts of the plants as aqueous suspension or emulsion with addition of 0.5% additive at a water application rate of 600 liters per hectare (converted). After the test plants had been kept in the greenhouse under optimum growth conditions for about 3 weeks, the activity of the preparations was rated visually in comparison to untreated controls.
(§5) For example, • 100% efficacy=plants have died, • 0% efficacy=like untreated control plants
(§6) Tables B1a to B12c below show the effects of selected inventive compounds of the general formula (I) according to table 1 on various harmful plants at an application rate corresponding to 1280 g/ha or less, which were obtained by the experimental procedure mentioned above.

[3] = tested on: Amaranthus retroflexus (AMARE); assay: B. Herbicidal post-emergence efficacy, AMARE
Description: as §4, §5, §6

[4] = tested on: Abutilon theophrasti (ABUTH); assay: B. Herbicidal post-emergence efficacy, ABUTH; conditions: rated visually after about 3 weeks
Description: as §4, §5, §6

Kochia scoparia (KCHSC) [5] = assay: B. Herbicidal post-emergence efficacy, KCHSC; conditions: for Post-emergence efficacy against KCHSC: 1280 g/ha; for Post-emergence efficacy against KCHSC in %: rated visually after about 3 weeks
Description: as §4, §5, §6

Kochia scoparia (KCHSC) [6] = assay: A. Herbicidal pre-emergence efficacy, KCHSC; conditions: pre-emergence, dosage 1280 g/ha
Source text: as §1, §2, §3

Stellaria media (STEME) [7] = assay: B. Herbicidal post-emergence efficacy, STEME
Description: as §4, §5, §6

Veronica persica (VERPE) [8] = assay: B. Herbicidal post-emergence efficacy, VERPE
Description: as §4, §5, §6

Stellaria media (STEME) [9] = assay: A. Herbicidal pre-emergence efficacy, STEME; conditions: dosage 1280 g/ha
Source text: as §1, §2, §3

Poa annua (POAAN) [10] = assay: A. Herbicidal pre-emergence efficacy, POAAN
Source text: as §1, §2, §3

Veronica persica (VERPE) [11] = assay: A. Herbicidal pre-emergence efficacy, VERPE; conditions: 1280 g/ha
Source text: as §1, §2, §3

Setaria viridis (SETVI) = assay: A. Herbicidal pre-emergence efficacy, SETVI
Source text: as §1, §2, §3

[12] = tested on: Abutilon theophrasti (ABUTH); assay: A. Herbicidal pre-emergence efficacy, ABUTH; conditions: 1280 g/ha; scored visually after about 3 weeks vs untreated controls
Source text: as §1, §2, §3

[13] = tested on: Digitaria sanguinalis (DIGSA); assay: A. Herbicidal pre-emergence efficacy, DIGSA; conditions: scored visually after about 3 weeks vs untreated controls
Source text: as §1, §2, §3

[14] = tested on: Echinochloa crus-galli (ECHCG); assay: A. Herbicidal pre-emergence efficacy, ECHCG; conditions: 1280 g/ha; scored visually after about 3 weeks vs untreated controls
Source text: as §1, §2, §3

[15] = tested on: Echinochloa crus-galli (ECHCG); assay: B. Herbicidal post-emergence efficacy, ECHCG; conditions: rated visually after about 3 weeks
Description: as §4, §5, §6

Row | Compound | Pre-emergence efficacy against AMARE in % ([1]; 1280 g/ha) [%] | Post-emergence efficacy against AMARE ([3]; 1280 g/ha) [%] | Post-emergence efficacy against ABUTH in % ([4]; 1280 g/ha) [%] | Post-emergence efficacy against KCHSC (Kochia scoparia (KCHSC) [5]) [%] | Pre-emergence efficacy against KCHSC (Kochia scoparia (KCHSC) [6]) [%] | Post-emergence efficacy against STEME (Stellaria media (STEME) [7]; 1280 g/ha) [%] | Post-emergence efficacy against VERPE (Veronica persica (VERPE) [8]; 320 g/ha) [%] | Post-emergence efficacy against VERPE (Veronica persica (VERPE) [8]; 1280 g/ha) [%] | Pre-emergence efficacy against AMARE in % ([1]; 320 g/ha) [%] | Post-emergence efficacy against AMARE ([3]; 320 g/ha) [%] | Pre-emergence efficacy against SETVI (Setaria viridis (SETVI); dosage 1280 g/ha) [%] | Pre-emergence efficacy against DIGSA ([13]; 1280 g/ha) [%] | Post-emergence efficacy against AMARE ([3]; 80 g/ha) [%] | Post-emergence efficacy against KCHSC in % (Kochia scoparia (KCHSC) [5]; 320 g/ha) [%] | also measured
1 | O=S(=O)(CC(F)(F)F)Oc1ccccc1Oc1ncc(Cl)cn1 [Example I-4] | 100 | 90 | 90 | 90 | 100 | 90 | 90 | 100 | – | – | – | – | – | – | Post-emergence efficacy against POAAN (Poa annua (POAAN) [2]): 90%
2 | CCCCS(=O)(=O)Oc1c(OC)cccc1Oc1ncc(Cl)cn1 [Example I-17] | – | – | – | – | – | – | – | – | – | – | – | – | – | – | Pre-emergence efficacy against STEME (Stellaria media (STEME) [9]): 90%
3 | O=S(=O)(CCCCl)Oc1ccccc1Oc1ccc(Cl)cn1 [Example I-27] | 90 | 100 | – | 90 | 100 | 90 | 90 | 90 | 90 | 90 | 100 | 100 | – | – | Pre-emergence efficacy against STEME (Stellaria media (STEME) [9]): 90%; Pre-emergence efficacy against POAAN (Poa annua (POAAN) [10]; dosage 320 g/ha): 90%; Pre-emergence efficacy against POAAN (Poa annua (POAAN) [10]; dosage 1280 g/ha): 90%; Pre-emergence efficacy against VERPE in % (Veronica persica (VERPE) [11]): 90%; Pre-emergence efficacy against SETVI (Setaria viridis (SETVI); dosage 320 g/ha): 100%; Pre-emergence efficacy against ABUTH [12]: 90%; Pre-emergence efficacy against DIGSA ([13]; 320 g/ha): 90%; Pre-emergence efficacy against ECHCG [14]: 90%
4 | N#Cc1ccc(Oc2ccccc2OS(=O)(=O)CCCCl)nc1 [Example I-58] | – | 90 | 90 | 90 | 90 | – | – | 90 | – | 90 | – | 90 | 90 | – | Pre-emergence efficacy against ABUTH [12]: 90%
5 | O=[N+]([O-])c1cnc(Oc2ccccc2OS(=O)(=O)CCCCl)c(F)c1 [Example I-61] | – | 90 | – | 90 | – | 90 | – | 90 | – | 90 | – | – | 90 | 90 | Pre-emergence efficacy against ECHCG [14]: 100%
6 | O=[N+]([O-])c1ccc(Oc2ccccc2OS(=O)(=O)CCCCl)nc1 [Example I-62] | – | 90 | – | – | – | – | – | 90 | – | – | – | – | – | – | –
7 | O=S(=O)(CCCCl)Oc1ccccc1Oc1ccc(C(F)(F)F)cn1 [Example I-63] | – | 90 | – | – | – | – | – | 90 | – | – | – | – | – | – | –
8 | O=S(=O)(CCCCl)Oc1ccccc1Oc1ncc(Br)cc1F [Example I-65] | 100 | 90 | 90 | – | – | 90 | – | 90 | – | 90 | – | 90 | – | – | Pre-emergence efficacy against POAAN (Poa annua (POAAN) [10]; dosage 1280 g/ha): 90%
9 | O=S(=O)(CCCC(F)(F)C(F)(F)F)Oc1c(Br)cccc1Oc1ncc(Cl)cn1 [Example I-67] | 100 | 100 | 100 | 100 | 100 | 100 | 100 | 100 | 100 | 100 | 100 | 90 | 100 | 100 | Post-emergence efficacy against POAAN (Poa annua (POAAN) [2]): 100%; Post-emergence efficacy against ABUTH in % ([4]; 80 g/ha): 90%; Post-emergence efficacy against ABUTH in % ([4]; 320 g/ha): 90%; Pre-emergence efficacy against VERPE in % (Veronica persica (VERPE) [11]): 100%; Post-emergence efficacy against KCHSC in % (Kochia scoparia (KCHSC) [5]; 80 g/ha): 90%; Post-emergence efficacy against STEME (Stellaria media (STEME) [7]; 320 g/ha): 100%; Post-emergence efficacy against VERPE (Veronica persica (VERPE) [8]; 80 g/ha): 90%
10 | O=S(=O)(CC1CC1(Cl)Cl)Oc1c(Br)cccc1Oc1ncc(Cl)cn1 (stereo not drawn) [Example I-77] | 100 | 100 | 100 | 100 | – | 90 | 100 | 100 | 100 | 100 | 100 | 100 | 100 | 90 | Pre-emergence efficacy against STEME (Stellaria media (STEME) [9]): 90%; Post-emergence efficacy against ECHCG in % ([15]; 320 g/ha): 90%; Post-emergence efficacy against ECHCG in % ([15]; 1280 g/ha): 100%; Pre-emergence efficacy against POAAN (Poa annua (POAAN) [10]; dosage 320 g/ha): 100%; Pre-emergence efficacy against POAAN (Poa annua (POAAN) [10]; dosage 1280 g/ha): 100%; Post-emergence efficacy against ABUTH in % ([4]; 80 g/ha): 90%; Post-emergence efficacy against ABUTH in % ([4]; 320 g/ha): 90%; Pre-emergence efficacy against SETVI (Setaria viridis (SETVI); dosage 320 g/ha): 90%; Post-emergence efficacy against KCHSC in % (Kochia scoparia (KCHSC) [5]; 80 g/ha): 90%; Pre-emergence efficacy against DIGSA ([13]; 320 g/ha): 90%; Post-emergence efficacy against VERPE (Veronica persica (VERPE) [8]; 80 g/ha): 100%
11 | O=S(=O)(CC=C(Cl)Cl)Oc1c(Br)cccc1Oc1ncc(Cl)cn1 [Example I-84] | 100 | 100 | 90 | 100 | 90 | 100 | 100 | 100 | 90 | 100 | 100 | – | 90 | 90 | Post-emergence efficacy against VERPE (Veronica persica (VERPE) [8]; 80 g/ha): 100%
